Reference: PubChem BioAssay (NCI)
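How tested: cells in 96-well plates exposed to compound for 48 hours at five concentrations. The concentration for full growth arrest is given as TGI.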

Experiments:
Test in all cases: NCI anticancer screen, dose series, 48 h
[1] = system: U251 CNS
[2] = system: DMS 114 small cell lung
[3] = system: KM12 colon
[4] = system: HOP-92 NSCLC
[5] = system: M19-MEL melanoma
[6] = system: KM20L2 colon
[7] = system: A498 renal
[8] = system: RXF 393 renal
[9] = system: SF-295 CNS
[10] = system: SK-OV-3 ovarian
[11] = system: IGROV1 ovarian
[12] = system: SNB-78 CNS
[13] = system: SNB-19 CNS
[14] = system: DMS 273 small cell lung
[15] = system: UACC-257 melanoma
[16] = system: UO-31 renal
[17] = system: MOLT-4 leukemia
[18] = system: TK-10 renal
[19] = system: NCI-H522 lung
[20] = system: ACHN renal
[21] = system: SK-MEL-28 melanoma
[22] = system: NCI-H460 lung
[23] = system: HL-60(TB) leukemia
[24] = system: HCT-116 colon
[25] = system: OVCAR-5 ovarian
[26] = system: NCI-H23 lung
[27] = system: CCRF-CEM leukemia
[28] = system: UACC-62 melanoma
[29] = system: HOP-62 NSCLC
[30] = system: M14 melanoma
[31] = system: EKVX NSCLC
[32] = system: A549 NSCLC
[33] = system: HT29 colon
[34] = system: OVCAR-8 ovarian
[35] = system: SR leukemia
[36] = system: SF-268 CNS
[37] = system: NCI-H226 lung
[38] = system: CAKI-1 renal
[39] = system: MCF7 breast
[40] = system: T-47D breast
[41] = system: SF-539 CNS
[42] = system: COLO 205 colon
[43] = system: SW-620 colon
[44] = system: MALME-3M melanoma
[45] = system: DU-145 prostate
[46] = system: SK-MEL-5 melanoma
[47] = system: OVCAR-3 ovarian
[48] = system: SK-MEL-2 melanoma
[49] = system: LOX IMVI melanoma
[50] = system: MDA-MB-231 breast
[51] = system: NCI/ADR-RES ovarian
[52] = system: OVCAR-4 ovarian
[53] = system: K-562 leukemia
[54] = system: SNB-75 CNS
[55] = system: HS 578T breast
[56] = system: HCC-2998 colon
[57] = system: BT-549 breast
[58] = system: PC-3 prostate
[59] = system: RPMI-8226 leukemia
[60] = system: HCT-15 colon
[61] = system: 786-0 renal
[62] = system: MDA-N
[63] = system: MDA-MB-435
[64] = system: SN12C renal

Q: Which results are given for C=C(C)C1CC=C(C)[C@](O)(C2(O)C[C@H](C(=C)C)CC=C2C)C1 (some centres not stated)?
A: TGI [1]: > 100 µM; TGI [2]: > 100 µM; TGI [3]: > 100 µM; TGI [4]: > 100 µM; TGI [5]: > 100 µM; TGI [6]: > 100 µM; TGI [7]: > 100 µM; TGI [8]: > 100 µM; TGI [9]: > 100 µM; TGI [10]: > 100 µM; TGI [11]: > 100 µM; TGI [12]: > 100 µM; TGI [13]: > 100 µM; TGI [14]: > 100 µM; TGI [15]: > 100 µM; TGI [16]: > 100 µM; TGI [17]: > 100 µM; TGI [18]: > 100 µM; TGI [19]: > 100 µM; TGI [20]: > 100 µM; TGI [21]: > 100 µM; TGI [22]: > 100 µM; TGI [23]: > 100 µM; TGI [24]: > 100 µM; TGI [25]: > 100 µM; TGI [26]: > 100 µM; TGI [27]: > 100 µM; TGI [28]: > 100 µM; TGI [29]: > 100 µM; TGI [30]: > 100 µM; TGI [31]: > 100 µM; TGI [32]: > 100 µM; TGI [33]: > 100 µM; TGI [34]: > 100 µM; TGI [35]: > 100 µM

Q: Which results are given for CSc1c(C(=O)Nc2ccc(Cl)cc2)c(N)nn1-c1ccccc1?
A: TGI [36]: > 100 µM; TGI [1]: > 100 µM; TGI [3]: > 100 µM; TGI [4]: > 100 µM; TGI [37]: > 100 µM; TGI [7]: > 100 µM; TGI [8]: > 87.4 µM; TGI [9]: > 100 µM; TGI [10]: > 100 µM; TGI [38]: > 100 µM; TGI [11]: > 100 µM; TGI [13]: > 100 µM; TGI [39]: > 100 µM; TGI [15]: > 100 µM; TGI [16]: > 100 µM; TGI [40]: > 100 µM; TGI [41]: > 100 µM; TGI [42]: > 100 µM; TGI [17]: > 100 µM; TGI [18]: > 100 µM; TGI [19]: > 100 µM; TGI [20]: > 100 µM; TGI [43]: > 100 µM; TGI [21]: > 100 µM; TGI [44]: > 100 µM; TGI [45]: > 100 µM; TGI [46]: > 100 µM; TGI [47]: > 100 µM; TGI [22]: > 100 µM; TGI [23]: > 100 µM; TGI [48]: > 100 µM; TGI [49]: > 100 µM; TGI [50]: > 100 µM; TGI [51]: > 100 µM; TGI [24]: > 100 µM; TGI [52]: > 23.8 µM; TGI [25]: > 100 µM; TGI [53]: > 100 µM; TGI [54]: > 86.3 µM; TGI [26]: > 100 µM; TGI [27]: > 100 µM; TGI [28]: > 100 µM; TGI [55]: > 100 µM; TGI [56]: > 100 µM; TGI [57]: > 100 µM; TGI [29]: > 100 µM; TGI [30]: > 100 µM; TGI [58]: > 100 µM; TGI [31]: > 100 µM; TGI [59]: > 100 µM; TGI [60]: > 100 µM; TGI [32]: > 100 µM; TGI [61]: > 43.2 µM; TGI [62]: > 100 µM; TGI [33]: > 100 µM; TGI [63]: > 100 µM; TGI [34]: > 100 µM; TGI [35]: > 100 µM; TGI [64]: > 100 µM

Q: For Cc1ccccc1C1CC(=O)CC(c2ccccc2C)C12C(=O)NC(=O)NC2=O (configuration not stated), which TGI [36] is on record?
A: > 100 µM

Q: And the TGI [1]?
A: > 100 µM

Q: What about the TGI [3] of the same compound?
A: > 100 µM

Q: What about the TGI [4] of the same compound?
A: > 100 µM

Q: What about the TGI [37] of the same compound?
A: > 100 µM

Q: And the TGI [7]?
A: > 100 µM

Q: And the TGI [8]?
A: > 100 µM

Q: What about the TGI [9] of the same compound?
A: > 100 µM

Q: And the TGI [10]?
A: > 100 µM

Q: What about the TGI [38] of the same compound?
A: > 100 µM

Q: And the TGI [11]?
A: > 100 µM

Q: What about the TGI [13] of the same compound?
A: > 100 µM

Q: What about the TGI [39] of the same compound?
A: > 100 µM

Q: And the TGI [15]?
A: > 100 µM

Q: What about the TGI [16] of the same compound?
A: > 100 µM

Q: What about the TGI [40] of the same compound?
A: > 100 µM

Q: What about the TGI [41] of the same compound?
A: > 100 µM

Q: And the TGI [42]?
A: > 100 µM

Q: And the TGI [17]?
A: > 100 µM

Q: What about the TGI [18] of the same compound?
A: > 100 µM

Q: What about the TGI [19] of the same compound?
A: > 100 µM

Q: And the TGI [20]?
A: > 100 µM

Q: What about the TGI [43] of the same compound?
A: > 100 µM

Q: And the TGI [21]?
A: > 100 µM

Q: What about the TGI [44] of the same compound?
A: > 100 µM

Q: What about the TGI [45] of the same compound?
A: > 100 µM

Q: What about the TGI [46] of the same compound?
A: > 100 µM

Q: And the TGI [47]?
A: > 100 µM

Q: And the TGI [22]?
A: > 100 µM

Q: What about the TGI [23] of the same compound?
A: > 100 µM

Q: What about the TGI [48] of the same compound?
A: > 100 µM

Q: And the TGI [49]?
A: > 100 µM

Q: And the TGI [50]?
A: > 100 µM

Q: And the TGI [51]?
A: > 100 µM

Q: What about the TGI [24] of the same compound?
A: > 100 µM

Q: And the TGI [52]?
A: > 100 µM

Q: And the TGI [25]?
A: > 100 µM

Q: And the TGI [53]?
A: > 100 µM

Q: And the TGI [54]?
A: > 100 µM

Q: And the TGI [26]?
A: > 100 µM

Q: What about the TGI [27] of the same compound?
A: > 100 µM

Q: What about the TGI [28] of the same compound?
A: > 100 µM

Q: And the TGI [55]?
A: > 100 µM

Q: And the TGI [56]?
A: > 100 µM

Q: And the TGI [57]?
A: > 100 µM

Q: What about the TGI [29] of the same compound?
A: > 100 µM

Q: What about the TGI [30] of the same compound?
A: > 100 µM

Q: What about the TGI [58] of the same compound?
A: > 100 µM

Q: And the TGI [31]?
A: > 100 µM

Q: And the TGI [59]?
A: 97.4 µM

Q: And the TGI [60]?
A: > 100 µM

Q: And the TGI [32]?
A: > 100 µM

Q: What about the TGI [61] of the same compound?
A: > 100 µM

Q: And the TGI [62]?
A: > 82.8 µM

Q: What about the TGI [33] of the same compound?
A: > 100 µM

Q: And the TGI [63]?
A: > 100 µM

Q: And the TGI [34]?
A: > 100 µM

Q: And the TGI [35]?
A: > 100 µM

Q: And the TGI [64]?
A: > 100 µM

Q: What does the source list for COc1cc(N(CCC#N)CCC#N)ccc1/C=C1\SC(=S)NC1=O?
A: TGI [36]: > 100 µM; TGI [1]: > 100 µM; TGI [3]: > 100 µM; TGI [4]: > 100 µM; TGI [37]: > 100 µM; TGI [7]: > 100 µM; TGI [8]: > 100 µM; TGI [9]: > 100 µM; TGI [10]: > 100 µM; TGI [38]: > 100 µM; TGI [11]: > 100 µM; TGI [13]: > 100 µM; TGI [39]: > 100 µM; TGI [15]: > 100 µM; TGI [16]: > 100 µM; TGI [40]: > 100 µM; TGI [41]: > 100 µM; TGI [42]: > 100 µM; TGI [17]: > 100 µM; TGI [18]: > 100 µM; TGI [19]: > 100 µM; TGI [20]: > 100 µM; TGI [43]: > 100 µM; TGI [21]: > 100 µM; TGI [44]: > 100 µM; TGI [45]: > 100 µM; TGI [46]: > 100 µM; TGI [47]: > 100 µM; TGI [22]: > 100 µM; TGI [23]: > 100 µM; TGI [48]: > 100 µM; TGI [49]: > 100 µM; TGI [50]: > 100 µM; TGI [51]: > 100 µM; TGI [24]: > 100 µM; TGI [52]: > 100 µM; TGI [25]: > 100 µM; TGI [53]: > 100 µM; TGI [54]: > 100 µM; TGI [26]: > 100 µM; TGI [27]: > 100 µM; TGI [28]: > 100 µM; TGI [55]: > 100 µM; TGI [56]: > 100 µM; TGI [57]: > 100 µM; TGI [29]: > 100 µM; TGI [30]: > 100 µM; TGI [58]: > 100 µM; TGI [31]: > 100 µM; TGI [59]: > 100 µM; TGI [60]: > 100 µM; TGI [32]: > 100 µM; TGI [61]: > 100 µM; TGI [62]: > 100 µM; TGI [33]: > 100 µM; TGI [63]: > 100 µM; TGI [34]: > 100 µM; TGI [35]: > 100 µM; TGI [64]: > 100 µM
